Reference: US11259522B2, “Control of resistant pests” (priority 2017, dated 2022)
Values after ≈ are worked out from the molar mass of the structure shown. Values joined by “and” are separate entries in the source; they are usually repeats but may differ in a detail not shown here. Identical values can stand only once. Like-named read-outs stand apart in the source and are kept apart here.

Columns and labels:
[1] = test system: M. persicae (green peach aphid) population resistant to carbamates and synthetic pyrethroids; test: Leaf dip bioassay, green peach aphid, resistant population; assay type: in vivo, Myzus persicae; conditions: 96 hours exposure; for LC50: Myzus persicae, foliar
Procedure: Each colony was maintained separately on bok choi plants ([…]) within an exclusion cage in a constant temperature room at 24° C. with a photoperiod of 16:8 LD.
Laboratory bioassays were used to determine the efficacy of flavesone against M. persicae following the leaf dip method described in Moores et al. (1994, Pesticide Biochemistry and Physiology, 49, 114-120). A pilot study was first conducted which confirmed that the leaf dip method was appropriate to elicit a clear dose response for Flavocide 500EW against M. persicae, and to determine the appropriate rate range and timing of mortality assessments (scored at 24, 48, 72 & 96 hours) (data not shown).
Bioassays were then conducted to assess the efficacy of flavesone against a susceptible and resistant population of M. persicae, and to calculate LC values. The efficacy of a conventional insecticide, pirimicarb, was tested for comparison. Nine concentrations of flavesone ranging from 1×10^−3 to 10 times the proposed field rate (Table 15), and six concentrations of pirimicarb were serially diluted and tested, along with a water control, against the susceptible and resistant aphid populations. Leaf discs (25 mm diameter) cut from bok choi leaves were submerged for 1 second in the insecticide solutions, or in the water control, and placed adaxial side up on 10 g/L agar in 35 mm petri dishes. Six replicate leaf discs were prepared per treatment. Once leaves were air-dry, eight M. persicae nymphs were transferred to each insecticide-dipped leaf disc using a fine-haired paintbrush.
After aphid introduction, each petri dish was inverted onto a lid containing a 25 mm diameter filter paper to control humidity. All petri dishes were then placed into an incubator held at 18° C.±2° C. with a photoperiod of 16:8 LD cycle. At 48 & 96 hours, aphids were scored as alive (vibrant and moving freely), dead (not moving over a 5 second period), or incapacitated (inhibited movement).
Dose-response curves were generated by plotting percentage mortality against log concentration. Mortality data was analysed using a logistic regression model with random effects. Logistic regression is suited for the analysis of binary response data (i.e. dead/alive) with the random effect component of the model controlling for the non-independence of mortality scores within replicates. […] Population differences were tested by comparing the change in model deviance with and without the population factor (different regression intercepts for each population). Differences in regression slopes between populations were tested by comparing the change in model deviance with and without the population×dose interaction term.

[2] = test system: Rhipicephalus microplus larvae, multi-resistant Tiaro reference strain; test: Larval packet test (LPT), cattle tick larvae, multi-resistant strain; assay type: in vivo; conditions: for LC50 (ppm) / LC99 (ppm): Tiaro, Probit analysis
Procedure: Filter papers (75 mm×85 mm Whatman® No. 541), with grid patterns, were impregnated on ½ of the paper with 225 μL of each solution using a micro-pipette and immediately folded in half, enveloped in polyethylene plastic and sealed with 3 bulldog clips. The impregnated papers were kept at room temperature on aluminium trays for a minimum of 60 minutes to allow for dispersal across the grid pattern of the paper prior to aliquoting of larvae. The packets were prepared in duplicate for each concentration, including the negative control.
Aliquots of approximately 100 larvae were placed into each packet using plastic disposable forceps and the packets resealed and incubated and 27° C. and 85% relative humidity (RH).
After 24 hours, the larval packets were opened and the numbers of dead and live larvae were counted under a magnification lamp. Percentage mortality was calculated and, where applicable, corrected using Abbott's Formula (Abbott, 1925, J. Economic Entomology, 18:256-257): […]
LC50 and LC99 values were determined by Probit mortality vs log concentration analysis. Probit values were derived from “Transformation of Percentages to Probit's Tables” published by Fisher R. A. and Yates F. (1938).
The LPT Assay of Example 1 was repeated using a narrow range of concentrations, 1 in 2 series, of flavesone to determine LC50 and LC99 values against the susceptible NRFS and the multi-resistant Tiaro reference strain.
The Tiaro strain of R. microplus comprises of about 30% fluazuron, 60.6% cypermethrin (SP), 57.6% flumethrin (SP), 16.2% amitraz (amidine), 11.3% DDT, 9.3% chlorpyrifos (OP) and 2.4% dieldrin resistance [2014 acaricide resistance profiling].
The stock solution of flavesone (100,000 ppm) was diluted 1 in 10 with olive oil (1 mL to 9 mL diluent) to give 10,000 ppm, which was then further diluted 1 in 2 in series (5 mL to 5 mL diluent) to give 5,000 ppm, 2,500 ppm, 1,250 ppm, 625 ppm, 312.5 ppm and 156.25 ppm concentrations.
For the preparation of the positive control, cypermethrin, a stock solution of a concentration of 10,000 ppm was prepared in 2:1 trichloroethylene (TCE)/olive oil as the solvent ([…] cypermethrin, 94.8% purity, to 10 mL solvent) and then further diluted 1 in 2 in series (5 mL to 5 mL solvent) to also give 5,000 ppm, 2,500 ppm, 1,250 ppm, 625 ppm, 312.5 ppm and 156.25 ppm.
The flavesone papers were prepared as in Example 1.
The cypermethrin papers were impregnated with 670 μL of each solution using a micro-pipette and hung on a rack in a fume-hood to allow papers to dry (evaporation of TCE) for a minimum of 60 minutes. The papers were then folded in half and sealed with three bulldog clips, placed on aluminium trays prior to aliquoting the larvae. All packets were prepared in duplicate.
A dose-response relationship was determined at 24 hours contact exposure.
Concentrations of 1,250 ppm, 625 ppm and 312.5 ppm flavesone concentrations prepared for Example 3 were used on the same day of preparation. Duplicate papers were prepared for both the NRFS and Tiaro strains (including negative controls) as described in Example 2.
Mortality was assessed at 48 hours and LC50 and LC99 values were determined by Probit mortality vs log concentration analysis.

[3] = test system: Rhyzopertha dominica strain QRD1440 (resistant to OP protectants and pyrethroids); test: Grain protectant bioassay on treated wheat, resistant lesser grain borer; conditions: for Live adult progeny: mean ± SE; for Progeny reduction (%): vs untreated control
[4] = Rhipicephalus microplus, Example 2, 24 hours
[5] = Rhipicephalus microplus, Example 4, 48 hours
[6] = Example 6, QRD1440, 25 ppm on wheat, replicates A, B, C
[7] = Example 6, QRD1440, 50 ppm on wheat, replicates A, B, C
[8] = Example 6, QRD1440, 75 ppm on wheat, replicates A, B, C
[9] = Example 7, QRD1440, 60 ppm on wheat, replicates A, B, C
[10] = Rhyzopertha dominica, in Triticum aestivum, 336 h, read-out: Adult mortality (%)

What does the source list for `CC(C)C(=O)C1C(=O)C(C)(C)C(=O)C(C)(C)C1=O` [Flavesone, 1-isobutyroyl-3,3,5,5-tetramethylcyclohexane-2,4,6-trione]?
LC50 ([1]; Resistant population, read-out: LC50 (mg a.i./L)): 3150 µg/mL (≈ 12.5 mM); LC50 ([1]; susceptible and resistant populations, read-out: LC50): 2730 to 3150 µg/mL (≈ 10.8 to 12.5 mM); LC90 (mg a.i./L) ([1]; Resistant population): 7,929 mg a.i./L; LC99 (mg a.i./L) ([1]; Resistant population): 21,708 mg a.i./L; cross-resistance, comparing LC50 and LC99 data between NRFS and Tiaro strains ([2]; Example 2, 24 hours): no evidence of cross-resistance; LC50 (ppm) ([2]; Example 2, 24 hours): 647 ppm; LC99 (ppm) ([2]; Example 2, 24 hours): 1039 ppm; LC50 (ppm) ([2]; Example 4, 48 hours): 521 ppm; LC99 (ppm) ([2]; Example 4, 48 hours): 887 ppm; mortality at 2.5 ppm ([2]; Rhipicephalus microplus, Example 2, 2.500 ppm, 24 hours): 100%; mortality at 156.25 ppm ([2]; Rhipicephalus microplus, Example 2, 156.25 ppm, 24 hours): 0%; mortality at 312.5 ppm [2, 4]: 0.13%; mortality at 625 ppm [2, 4]: 12.8%; mortality at 1250 ppm ([2]; Rhipicephalus microplus, Example 2, 1,250 ppm, 24 hours): 100%; mortality at 5000 ppm ([2]; Rhipicephalus microplus, Example 2, 5,000 ppm, 24 hours): 100%; mortality at 10000 ppm ([2]; Rhipicephalus microplus, Example 2, 10,000 ppm, 24 hours): 100%; mortality at 312.5 ppm [2, 5]: 0.97%; mortality at 625 ppm [2, 5]: 84.1%; mortality at 1250 ppm ([2]; Rhipicephalus microplus, Example 4, 1250 ppm, 48 hours): 100%; F1 Progeny count No. dead/total ([3]; Example 5, QRD1440, 25 ppm on wheat, further 6 weeks, replicates A, B, C): 0/37 and 0/62 and 0/90; 14 Day adult mortality No. dead (total) ([3]; Example 5, QRD1440, 25 ppm on wheat, replicates A, B, C): 19/50 and 11/50 and 14/50; 14 day Adult Mortality No. dead/total [3, 6]: 22/50 and 21/50 and 30/50; F1 Progeny count No. dead/total [3, 6]: 0/20 (2×) and 0/5; 14 day Adult Mortality No. dead/total [3, 7]: 47/50 (2×) and 49/50; F1 Progeny count No. dead/total [3, 7]: 0/0; 14 day Adult Mortality No. dead/total [3, 8]: 50/50; F1 Progeny count No. dead/total [3, 8]: 0/0; 14 day Adult Mortality No. dead/total [3, 9]: 50/50; F1 Progeny count No. dead/total [3, 9]: 0/0; Live adult progeny ([3]; QRD1440, 25 mg/kg): 23.7 ± 9.0; Progeny reduction (%) ([3]; QRD1440, 25 mg/kg): 88.8%; Progeny reduction (%) ([3]; QRD1440, 25 mg/kg, listed as flavesone): 88%; Live adult progeny ([3]; QRD1440, 60 mg/kg): 0.0 ± 0.0; Progeny reduction (%) ([3]; QRD1440, 60 mg/kg): 100%; mortality at 25 mg/kg [3, 10]: 56.7 ± 4.1%; mortality at 60 mg/kg [3, 10]: 100%
